Measurements: ChEMBL document CHEMBL3885881, “DrugMatrix”

Species: Rattus norvegicus
Assay: DrugMatrix - Regimen: Daily Repeat
Type: toxicity, organism-based, Sprague-Dawley
Parameters: regimen Daily Repeat, gender Male, age 6-8 weeks
Conditions: in vivo, iv, vehicle 100 % SALINE; for ABSOLUTE BASOPHIL / ABSOLUTE EOSINOPHIL / ABSOLUTE LYMPHOCYTE / ABSOLUTE MONOCYTE / ABSOLUTE SEGMENTED NEUTROPHIL / BASOPHIL / EOSINOPHIL / ERYTHROCYTE COUNT / HEMATOCRIT / HEMOGLOBIN / LEUKOCYTE COUNT / LYMPHOCYTE / MEAN CORPUSCULAR HEMOGLOBIN / MONOCYTE / NEUTROPHIL / NUCLEATED RED BLOOD CELLS / PLATELET COUNT / MEAN CORPUSCULAR HEMOGLOBIN CONCENTRATION / MEAN CORPUSCULAR VOLUME: tissue Blood
[1] = 6 mg/kg, 72 h, dose level High, time 3 day
[2] = 6 mg/kg, 72 h, tissue Plasma, dose level High, time 3 day
[3] = 6 mg/kg, 120 h, dose level High, time 5 day
[4] = 6 mg/kg, 120 h, tissue Plasma, dose level High, time 5 day
[5] = […], 72 h, dose 0.12 mg/Kg, dose level Low, time 3 day
[6] = […], 72 h, tissue Plasma, dose 0.12 mg/Kg, dose level Low, time 3 day
[7] = […], 120 h, dose 0.12 mg/Kg, dose level Low, time 5 day
[8] = […], 120 h, tissue Plasma, dose 0.12 mg/Kg, dose level Low, time 5 day

Substance: SODIUM NITROPRUSSIDE
- ABSOLUTE BASOPHIL [1]: 0 CELLS/uL
- ABSOLUTE EOSINOPHIL [1]: 0 CELLS/uL
- ABSOLUTE LYMPHOCYTE [1]: 16076 CELLS/uL
- ABSOLUTE MONOCYTE [1]: 195 CELLS/uL
- ABSOLUTE SEGMENTED NEUTROPHIL [1]: 1029 CELLS/uL
- BASOPHIL [1]: 0%
- EOSINOPHIL [1]: 0%
- ERYTHROCYTE COUNT [1]: 6.07 x10E6/uL
- HEMATOCRIT [1]: 38.07%
- HEMOGLOBIN [1]: 15 G/DL
- LEUKOCYTE COUNT [1]: 17.3 x10E3/uL
- LYMPHOCYTE [1]: 92.67%
- MEAN CORPUSCULAR HEMOGLOBIN [1]: 24.73 pg
- MONOCYTE [1]: 1%
- NEUTROPHIL [1]: 6.33%
- NUCLEATED RED BLOOD CELLS [1]: 0 /100WBC
- PLATELET COUNT [1]: 1432 x10E3/uL
- ALANINE AMINOTRANSFERASE [2]: 34.67 u/L
- ALBUMIN [2]: 4.5 G/DL
- ALKALINE PHOSPHATASE [2]: 308.33 u/L
- ASPARTATE AMINOTRANSFERASE [2]: 90.67 u/L
- BLOOD UREA NITROGEN [2]: 21.33 mg/dL
- CARBON DIOXIDE [2]: 23.67 mmol/L
- CHOLESTEROL [2]: 68 mg/dL
- CREATINE PHOSPHOKINASE [2]: 251 u/L
- CREATININE [2]: 0.17 mg/dL
- GLUCOSE [2]: 173 mg/dL
- LACTATE DEHYDROGENASE [2]: 383.67 u/L
- LIPASE [2]: 8.33 u/L
- PHOSPHORUS [2]: 13.27 mg/dL
- POTASSIUM [2]: 6.61 MEQ/L
- TOTAL BILIRUBIN [2]: 0.1 mg/dL
- TOTAL PROTEIN [2]: 6.4 G/DL
- URIC ACID [2]: 1.87 mg/dL
- ABSOLUTE BASOPHIL [3]: 0 CELLS/uL
- ABSOLUTE EOSINOPHIL [3]: 139 CELLS/uL
- ABSOLUTE LYMPHOCYTE [3]: 12315 CELLS/uL
- ABSOLUTE MONOCYTE [3]: 50.33 CELLS/uL
- ABSOLUTE SEGMENTED NEUTROPHIL [3]: 1129 CELLS/uL
- BASOPHIL [3]: 0%
- EOSINOPHIL [3]: 1%
- ERYTHROCYTE COUNT [3]: 5.93 x10E6/uL
- HEMATOCRIT [3]: 37.1%
- HEMOGLOBIN [3]: 14.97 G/DL
- LEUKOCYTE COUNT [3]: 13.63 x10E3/uL
- LYMPHOCYTE [3]: 90.33%
- MEAN CORPUSCULAR HEMOGLOBIN [3]: 25.2 pg
- MEAN CORPUSCULAR HEMOGLOBIN CONCENTRATION [3]: 40.33 G/DL
- MEAN CORPUSCULAR VOLUME [3]: 62.57 fL
- MONOCYTE [3]: 0.33%
- NEUTROPHIL [3]: 8.33%
- NUCLEATED RED BLOOD CELLS [3]: 0.33 /100WBC
- PLATELET COUNT [3]: 1277.67 x10E3/uL
- ALANINE AMINOTRANSFERASE [4]: 45.67 u/L
- ALBUMIN [4]: 4.5 G/DL
- ALKALINE PHOSPHATASE [4]: 128.33 u/L
- ASPARTATE AMINOTRANSFERASE [4]: 86 u/L
- CARBON DIOXIDE [4]: 18 mmol/L
- CHOLESTEROL [4]: 61.67 mg/dL
- CREATINE PHOSPHOKINASE [4]: 409.33 u/L
- CREATININE [4]: 0.23 mg/dL
- LACTATE DEHYDROGENASE [4]: 135.67 u/L
- LIPASE [4]: 8.33 u/L
- PHOSPHORUS [4]: 10.9 mg/dL
- POTASSIUM [4]: 16.23 MEQ/L
- TOTAL BILIRUBIN [4]: 0.13 mg/dL
- TOTAL PROTEIN [4]: 6.07 G/DL
- URIC ACID [4]: 1.4 mg/dL
- ABSOLUTE BASOPHIL [5]: 0 CELLS/uL
- ABSOLUTE EOSINOPHIL [5]: 0 CELLS/uL
- ABSOLUTE LYMPHOCYTE [5]: 13522.67 CELLS/uL
- ABSOLUTE MONOCYTE [5]: 88.33 CELLS/uL
- ABSOLUTE SEGMENTED NEUTROPHIL [5]: 1389 CELLS/uL
- BASOPHIL [5]: 0%
- EOSINOPHIL [5]: 0%
- ERYTHROCYTE COUNT [5]: 5.31 x10E6/uL
- HEMATOCRIT [5]: 34.4%
- HEMOGLOBIN [5]: 13.63 G/DL
- LEUKOCYTE COUNT [5]: 15 x10E3/uL
- MEAN CORPUSCULAR HEMOGLOBIN [5]: 25.67 pg
- MEAN CORPUSCULAR HEMOGLOBIN CONCENTRATION [5]: 39.63 G/DL
- MEAN CORPUSCULAR VOLUME [5]: 64.8 fL
- MONOCYTE [5]: 0.67%
- NEUTROPHIL [5]: 9.67%
- NUCLEATED RED BLOOD CELLS [5]: 0.33 /100WBC
- PLATELET COUNT [5]: 1321.67 x10E3/uL
- ALANINE AMINOTRANSFERASE [6]: 54.33 u/L
- ALBUMIN [6]: 4.1 G/DL
- ALKALINE PHOSPHATASE [6]: 342 u/L
- ASPARTATE AMINOTRANSFERASE [6]: 87.33 u/L
- BLOOD UREA NITROGEN [6]: 15 mg/dL
- CARBON DIOXIDE [6]: 26.67 mmol/L
- CHLORIDE [6]: 98.67 MEQ/L
- CHOLESTEROL [6]: 76 mg/dL
- CREATINE PHOSPHOKINASE [6]: 335.67 u/L
- CREATININE [6]: 0.11 mg/dL
- GLUCOSE [6]: 157.67 mg/dL
- LACTATE DEHYDROGENASE [6]: 223 u/L
- PHOSPHORUS [6]: 12.93 mg/dL
- POTASSIUM [6]: 6.73 MEQ/L
- TOTAL BILIRUBIN [6]: 0.23 mg/dL
- TOTAL PROTEIN [6]: 5.9 G/DL
- ABSOLUTE BASOPHIL [7]: 0 CELLS/uL
- ABSOLUTE EOSINOPHIL [7]: 39.33 CELLS/uL
- ABSOLUTE LYMPHOCYTE [7]: 10382.67 CELLS/uL
- ABSOLUTE MONOCYTE [7]: 0 CELLS/uL
- ABSOLUTE SEGMENTED NEUTROPHIL [7]: 444.67 CELLS/uL
- BASOPHIL [7]: 0%
- EOSINOPHIL [7]: 0.33%
- ERYTHROCYTE COUNT [7]: 5.02 x10E6/uL
- HEMATOCRIT [7]: 31.9%
- HEMOGLOBIN [7]: 12.83 G/DL
- LEUKOCYTE COUNT [7]: 10.87 x10E3/uL
- LYMPHOCYTE [7]: 95.67%
- MEAN CORPUSCULAR HEMOGLOBIN [7]: 25.6 pg
- MEAN CORPUSCULAR HEMOGLOBIN CONCENTRATION [7]: 40.23 G/DL
- MEAN CORPUSCULAR VOLUME [7]: 63.6 fL
- MONOCYTE [7]: 0%
- NEUTROPHIL [7]: 4%
- NUCLEATED RED BLOOD CELLS [7]: 0 /100WBC
- PLATELET COUNT [7]: 1212.67 x10E3/uL
- ALANINE AMINOTRANSFERASE [8]: 40.33 u/L
- ALKALINE PHOSPHATASE [8]: 391 u/L
- ASPARTATE AMINOTRANSFERASE [8]: 87.33 u/L
- BLOOD UREA NITROGEN [8]: 17 mg/dL
- CARBON DIOXIDE [8]: 28 mmol/L
- CHOLESTEROL [8]: 71.67 mg/dL
- CREATINE PHOSPHOKINASE [8]: 215.33 u/L
- CREATININE [8]: 0.14 mg/dL
- GLUCOSE [8]: 156.33 mg/dL
- LACTATE DEHYDROGENASE [8]: 79 u/L
- POTASSIUM [8]: 6.73 MEQ/L
- TOTAL BILIRUBIN [8]: 0.23 mg/dL
- TOTAL PROTEIN [8]: 5.87 G/DL
